# Paper PMC9652372, “Glycolytic flux control by drugging phosphoglycolate phosphatase” (Nature Communications, 2022)
# Several values for one entry are separate records, joined by “and”; a condition that tells them apart may be missing. Identical values can stand only once.
# Experiments:
# [1] = Compound solubility in 100% DMSO
# murine PGP [2] = biological target: T1, murine PGP (Mus musculus, UniProt Q8CHP8); assay: SAR: CP1, CP2 and analogs on PGP phosphatase activity (PG); format: biochemical; parameters: His6 (N, cleaved yes); made in house; host or cells: Escherichia coli BL21 (DE3), pETM11, co-expressed with groES-groEL-tig; details: for inhibition of mPGP activity at 40 µM CP compared to DMSO control (%): single experiments Exp #1-3
# T1 sequence (Q8CHP8 1-321): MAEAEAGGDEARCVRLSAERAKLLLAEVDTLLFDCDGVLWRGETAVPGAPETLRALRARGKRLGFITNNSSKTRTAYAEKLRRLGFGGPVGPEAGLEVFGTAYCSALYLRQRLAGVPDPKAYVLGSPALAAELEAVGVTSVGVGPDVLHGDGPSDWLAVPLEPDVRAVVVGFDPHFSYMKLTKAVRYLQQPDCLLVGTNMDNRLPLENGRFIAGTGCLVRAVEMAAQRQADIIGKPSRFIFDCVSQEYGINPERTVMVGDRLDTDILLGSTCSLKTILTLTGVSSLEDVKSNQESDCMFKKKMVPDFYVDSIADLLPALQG
# Description: However, the DMSO concentration was kept constant across each assay. For SAR experiments, all compound stocks were prepared at 10 mM in 100% DMSO. A constant final DMSO concentration of 0.4% was maintained under all conditions, and solvent control samples contained 0.4% DMSO without compounds.
# PGP phosphatase activity were assessed using recombinant, purified murine PGP and PG as a
# murine PGP [3] = biological target: T1, murine PGP
SMILES,solubility in 100% DMSO [1] [mM],inhibition of mPGP activity at 40 µM CP compared to DMSO control (%) (murine PGP [2]),"mPGP activity in presence of CP relative to DMSO controls, mPGP on PG (norm.) (murine PGP [2]; CP log[M] -4.39794)","mPGP activity in presence of CP relative to DMSO controls, mPGP on PG (norm.) (murine PGP [2]; CP log[M] -4.69897)","mPGP activity in presence of CP relative to DMSO controls, mPGP on PG (norm.) (murine PGP [2]; CP log[M] -5)","mPGP activity in presence of CP relative to DMSO controls, mPGP on PG (norm.) (murine PGP [2]; CP log[M] -5.30103)","mPGP activity in presence of CP relative to DMSO controls, mPGP on PG (norm.) (murine PGP [2]; CP log[M] -5.60206)","mPGP activity in presence of CP relative to DMSO controls, mPGP on PG (norm.) (murine PGP [2]; CP log[M] -5.90309)","mPGP activity in presence of CP relative to DMSO controls, mPGP on PG (norm.) (murine PGP [2]; CP log[M] -6.20412)","mPGP activity in presence of CP relative to DMSO controls, mPGP on PG (norm.) (murine PGP [2]; CP log[M] -6.50515)","mPGP activity in presence of CP relative to DMSO controls, mPGP on PG (norm.) (murine PGP [2]; CP log[M] -6.80618)","mPGP activity in presence of CP relative to DMSO controls, mPGP on PG (norm.) (murine PGP [2]; CP log[M] -7.10721)",further results
O=C(O)c1cc(Cc2ccc(NC(=O)c3ccccc3[N+](=O)[O-])c(C(=O)O)c2)ccc1NC(=O)c1ccccc1[N+](=O)[O-] [2B],10,97.486% and 99.4924% and 100.275%,0.02406 and 0.01842 and 0.02506,0.04813 and 0.03947 and 0.05013,0.08824 and 0.08421 and 0.08772,0.1631 and 0.1684 and 0.1604,0.2914 and 0.2711 and 0.2932,0.4679 and 0.4553 and 0.4662,0.6203 and 0.5816 and 0.584,0.7781 and 0.7842 and 0.7769,0.8663 and 0.8184 and 0.817,0.9358 and 0.8579 and 0.8521,"mPGP activity in presence of CP relative to DMSO controls, mPGP on PG (norm.) (murine PGP [2]; CP log[M] -7.40824): 0.9332 and 0.9316 and 0.9248; PGP inhibitory potency compared to parental compound (murine PGP [2]; PG dephosphorylation assay): slightly more potent than the parental compound"
O=C(O)c1ccccc1NC(=O)c1ccccc1Oc1ccccc1C(=O)Nc1ccccc1C(=O)O [1D],,14.6739% and 27.6836% and 20.8494%,,,,,,,,,,,
O=C(O)c1ccccc1N1C(=O)c2ccc(Oc3ccc4c(c3)C(=O)N(c3ccccc3C(=O)O)C4=O)cc2C1=O [1B],,29.6196% and 23.1638% and 21.6216%,,,,,,,,,,,
Cc1nnc(SCC(=O)Nc2ccc(Cc3ccc(NC(=O)CSc4nnc(C)s4)c(C(=O)O)c3)cc2C(=O)O)s1 [2E],100,43.2961% and 38.3249% and 35.989%,,,,,,,,,,,
O=C(Cc1cccs1)Nc1ccc(Cc2ccc(NC(=O)Cc3cccs3)c(C(=O)O)c2)cc1C(=O)O [2C],,80.4469% and 79.9492% and 79.3956%,0.2193 and 0.2518 and 0.2324,0.388 and 0.3967 and 0.3732,0.5639 and 0.5534 and 0.5023,0.6916 and 0.6556 and 0.5915,0.788 and 0.7767 and 0.6502,0.8578 and 0.8527 and 0.8404,0.853 and 0.8789 and 0.9014,0.9181 and 0.905 and 0.9155,0.9349 and 0.9264 and 0.946,1.002 and 0.9691 and 0.9624,"mPGP activity in presence of CP relative to DMSO controls, mPGP on PG (norm.) (murine PGP [2]; CP log[M] -4.09691): 0.1542 and 0.1663 and 0.1408"
O=C(O)c1cc2ccccc2c(-c2c(O)c(C(=O)O)cc3ccccc23)c1O [GYJACFGQPFXKCA-UHFFFAOYSA-N],,,,,,,,,,,,,IC50 (murine PGP [3]): > 50 µM
COc1ccc(C(=O)Nc2ccccc2C(=O)O)cc1 [1E],,33.1522% and 38.1356% and 45.1737%,,,,,,,,,,,
O=C(O)c1cccc(NC(=O)c2ccc(Oc3ccc(C(=O)Nc4cccc(C(=O)O)c4)cc3)cc2)c1 [1C],,57.0652% and 64.9718% and 66.7954%,,0.5416 and 0.5073 and 0.4404,0.7056 and 0.6098 and 0.6376,0.8 and 0.7439 and 0.7317,0.9101 and 0.8268 and 0.7615,0.8683 and 0.8326,,,,,"mPGP activity in presence of CP relative to DMSO controls, mPGP on PG (norm.) (murine PGP [2]; CP log[M] -4): 0.1618 and 0.1854 and 0.172; mPGP activity in presence of CP relative to DMSO controls, mPGP on PG (norm.) (murine PGP [2]; CP log[M] -4.12494): 0.2268 and 0.2271; mPGP activity in presence of CP relative to DMSO controls, mPGP on PG (norm.) (murine PGP [2]; CP log[M] -4.30103): 0.3124 and 0.2854 and 0.2844; mPGP activity in presence of CP relative to DMSO controls, mPGP on PG (norm.) (murine PGP [2]; CP log[M] -4.60206): 0.427 and 0.4195 and 0.4312; mPGP activity in presence of CP relative to DMSO controls, mPGP on PG (norm.) (murine PGP [2]; CP log[M] -4.82391): 0.6225 and 0.5805 and 0.5711"
O=C(Nc1ccc(Cc2ccc(NC(=O)c3cccs3)c(C(=O)O)c2)cc1C(=O)O)c1cccs1 [2D],50,93.8547% and 93.1472% and 91.7582%,0.09632 and 0.08995 and 0.05602,0.1303 and 0.1085 and 0.126,0.1756 and 0.1746 and 0.1485,0.2578 and 0.2672 and 0.2745,0.4504 and 0.4206 and 0.395,0.5949 and 0.6032 and 0.5826,0.7592 and 0.7328 and 0.6807,0.8952 and 0.8386 and 0.8543,0.932 and 0.8836 and 0.7843,0.9207 and 0.918 and 0.9468,"mPGP activity in presence of CP relative to DMSO controls, mPGP on PG (norm.) (murine PGP [2]; CP log[M] -7.40824): 0.9632 and 0.9206 and 0.9552"
